# pKi: −log10 of the molar value.
# What was measured:
# [1] = biological target: Ornithine carbamoyltransferase (Streptococcus/Enterococcus faecalis); test: Binding affinity against ornithine transcarbamoylase (OTC) produced by Streptococcus faecalis The buffer taken for this study is 50 mM Tris.HCl, 0.5 mM EDTA at pH 8.0.
# [2] = biological target: Ornithine carbamoyltransferase (Streptococcus/Enterococcus faecalis); test: Binding affinity against ornithine transcarbamoylase (OTC) produced by Streptococcus faecalis The buffer taken for this study is 50 mM Tris.HCl, 0.5 mM EDTA at pH 7.0.
# [3] = biological target: Ornithine carbamoyltransferase (Streptococcus/Enterococcus faecalis); test: Binding affinity against ornithine transcarbamoylase (OTC) produced by Streptococcus faecalis The buffer taken for this study is 50 mM maleate, 0.5 mM EDTA at pH 6.0.
SMILES,pKi [1],pKi [2],pKi [3]
N[C@@H](CCCNCP(=O)(O)CP(=O)(O)O)C(=O)O [2-Amino-5-[(hydroxy-phosphonomethyl-phosphinoylmethyl)-amino]-pentanoic acid],2.72,3.12,3.18
CC(C)(C)OC(=O)N[C@@H](CCCNCP(=O)(O)CP(=O)(O)O)C(=O)O [(2S)-2-[(tert-butoxycarbonyl)amino]-5-[({[(hydroxyphosphinato)methyl]phosphinato}methyl)ammonio]pentanoate],2.70,3.00,< 1.70
N[C@@H](CCNCP(=O)(O)CP(=O)(O)O)C(=O)O [(2S)-2-ammonio-4-[({[(hydroxyphosphinato)methyl]phosphinato}methyl)ammonio]butanoate],2.49,2.64,< 1.70

# Reference: BindingDB's records for doi:10.1021/jm991008q (1999)
